# Results published in patent US4118506A, “Pharmaceutical compositions containing 1,3-dithiol-2-ylidene malonate derivatives” (Nihon Nohyaku Co., Ltd., priority 1976, dated 1978).
# Experiments:
# [1] = test system: bile flow and excretion of biliary salt; experiment: cholagogic action: bile flow and biliary salt excretion; format: in vivo, rat (SD-JCL strain); design: key to excretion of biliary salt: relative to 1 h pre-drug amount taken as 100
# Experimental: The male rat (4 week-old, SD-JCL strain) was anesthetized with sodium pentobarbital (37.5 mg/kg, intraperitoneal injection). The abdominal cavity was opened through a midline incision. The common bile duct was catheterized with polyethylene tube o.d. 0.8 mm. The catheter was brought to the outside through the abdominal incision wound prior to closing. Bile was collected from the catheter continuously with time intervals of one hour. The quantity of bile produced in one hour was determined by weighing and that of biliary salt was determined by enzymatic method (Ikagaku Jikkenho Koza 1B, Biological Constituents II, edited by Tamino […]). The amount of biliary salts was represented as chloic acid equivalent. In the representation of the results, the quantities of bile and biliary salts produced in one hour prior to the administration of drug were taken as 100. […] As reference, anethol trithion was used.
# [2] = test system: acute liver damage induced by carbon tetrachloride; experiment: protective effect on acute liver damage associated with centrilobular necrosis, carbon tetrachloride model; format: in vivo, mouse (dd strain); conditions: 250 mg/kg oral 6 h before CCl4, 24 h after CCl4; for p-GPT: values over 1,000 taken as 1,000; for Liver Damage Index: 0 normal, 2 slightly recognized, 4 clearly observable, 6 heavy damage, average of 5 to 6 mice
# Description: Carbon tetrachloride (CCl4) administration induces centrilobular necrosis of the liver associated with loss of diphosphopyridine nucleotide, hepatic glycogen, coenzyme A and increase in neutral fat. Release of several enzymes from the hepatocytes, and increase of enzyme activities in the plasma are recognized as the result of the damage of the liver. A suitable means for evaluating the degree of damage induced by CCl4 or the degree of protection afforded by drugs is to study the plasma glutamic-pyruvic transaminase (p-GPT) activity.
# Methods: The test compounds were dissolved or suspended in olive oil and administered orally at the dose of 250 mg/kg to the mice (Four-week-old male mice-dd strain). After 6 hours, CCl4 was administered orally (0.05 ml/kg as olive oil solution). Animals were killed 24 hours after CCl4 administration, and the liver was grossly observed. The plasma was obtained by centrifugation. Activities of p-GPT were determined by the method of Reitman and Frankel and expressed in Karmen units.
# Score for liver damage index was as follows:
# Each figure indicates average of 5 to 6 mice. Values of p-GPT over 1,000 Karmen unit regarded as 1,000 for calculation of average for convenience.
# [3] = test system: acute liver damage induced by D-galactosamine; experiment: protective effect on acute hepatitis with mesenchymal reaction and discrete lobular necrosis, D-galactosamine model; format: in vivo, rat (SD strain); conditions: 250 mg/kg oral 6 h before D-galactosamine i.p.
# Experimental: D-Galactosamine is a compound which induces a discrete lobular necrosis associated with mesenchymal reaction similar to the change observed in human viral hepatitis, so that it is frequently used in producing a model for viral hepatitis.
# The compound of this invention or anethol trithion was administered orally to the male rat (SD strain) at the dose of 250 mg/kg. Six hours after it, D-galactosamine was intraperitoneally administered at the dose of 600 mg/kg. Four hours after it, an additional 300 mg/kg was administered intraperitoneally. Eight hours after it, the animals were sacrificed to collect the blood samples. P-GPT activity and triglyceride in the liver were measured to evaluate the effect of the compound of this invention.
# [4] = test system: acute liver damage induced by allyl alcohol; experiment: protective effect on acute liver damage associated with periportal necrosis, allyl alcohol model; format: in vivo, mouse (dd strain); conditions: 250 mg/kg oral 6 h before allyl alcohol 0.075 ml/kg oral; 24 h after
# Experimental: The compound of this invention or anethol trithion was orally administered to the male mouse (4 week/old, dd strain) at the dose of 250 mg/kg. Six hours after it, allyl alcohol was orally administered at the dose of 0.075 ml/kg. Twenty four hours after it, the animals were sacrificed to collect blood samples.
# [5] = test system: acute liver damage induced by chloroform; experiment: protective effect on acute liver damage associated with centrilobular necrosis, chloroform model; format: in vivo, mouse (dd); conditions: chloroform 0.2 ml/kg oral; 100 mg/kg oral 6 h before; 24 h after
# Experimental: (§1) Bromobenzene (hereinafter abbreviated as BB), Dimethylnitrosamine (hereinafter abbreviated as DMN) and chloroform (hereinafter abbreviated as CF) resemble carbon tetrachloride in inducing liver damage associated with centrilobular necrosis.
# (§2) Test compound or anethol trithion was orally administered to animal at the dose of 100 mg/kg. Twenty four hours after it (in the case of dimethylnitrosamine, exceptionally fifteen hours after it) the animals were sacrificed and blood samples were collected. Indices of hepatotoxicity adoptable in each chemical were measured, from which the efficacy of the compound was evaluated.
# CF male mouse 0.2 oral p-GPT activity
# [6] = test system: acute liver damage induced by bromobenzene; experiment: protective effect on acute liver damage associated with centrilobular necrosis, bromobenzene model; format: in vivo, rat (SD); conditions: bromobenzene 0.75 ml/kg oral; 100 mg/kg oral 6 h before; 24 h after
# Experimental: as §1, §2
# BB male rat 0.75 oral p-GPT activity
# [7] = test system: acute liver damage induced by dimethylnitrosamine; experiment: protective effect on acute liver damage associated with centrilobular necrosis, dimethylnitrosamine model; format: in vivo, mouse (dd); conditions: dimethylnitrosamine 0.05 ml/kg i.p.; 100 mg/kg oral 6 h before; 15 h after
# Experimental: as §1, §2
# DMN male mouse 0.05 intraper-
# [8] = test system: glucose metabolic function of liver; experiment: effect on glucose metabolism (blood sugar); format: in vivo, mouse; conditions: for Blood Sugar: 250 mg/kg oral 6 h before glucose 4.0 g/kg
# Experimental: Methods: The test compounds dissolved in olive oil and administered orally at the dose of 250 mg/kg to the mice. After 6 hours, 4.0 g/kg of glucose was orally administered. The same amount of glucose was given to the control animals. 0.02 ml of blood was taken from caudal vein of the mice at 30, 60, 90 and 120 min. after glucose administration. Blood sugar was measured by the procedure of Somogyi-Nelson. Number of animals used was 5 to 6 mice for each treatment.
# [9] = test system: alcohol metabolic function of liver; experiment: effect on concentration of ethyl alcohol in the blood; format: in vivo, mouse; conditions: 250 mg/kg oral 6 h before ethanol 1,000 mg/kg
# Experimental: The test compounds are dissolved or suspended in olive oil and administered orally at the dose of 250 mg/kg to the mice. After 6 hours, 1,000 mg/kg of ethyl alcohol was given orally. Blood was taken in a capillary from caudal vein at the time indicated in the results. The plasma was obtained by centrifugation. The concentration of ethyl alcohol in the plasma was measured by FID type gas liquid chromatography. Five mice were used for each group.
# [10] = test system: fatty liver induced by carbon tetrachloride; experiment: therapeutic effect on fatty liver, carbon tetrachloride model; format: in vivo, rat (SD strain)
# Experimental: Carbon tetrachloride also induces fatty liver, but the picture of disease differs from the case of ethionine-induced fatty liver. Carbon tetrachloride is generally considered to damage microsome and thereby to inhibit protein synthesis and induce fatty liver.
# Carbon tetrachloride was subcutaneously administered to 36 week-old male rats (SD strain) for 4 days at the dose of 1 ml/kg. The treated animals were left for 3 days after the last administration to maximize the manifestation of fatty liver.
# Administration of Compound 4 was commenced on the fourth day after the administration of carbon tetrachloride was completed. It was orally given everyday for 10 days at the dose of 50 or 250 mg/kg. On the 11th day, the animals were sacrificed by exsanguination. The therapeutic effect was evaluated by determining the content of lipid in the liver (triglyceride and total lipid) and examining the histopathological changes. Triglyceride and total lipid were determined colorimetrically by chromotropic acid method and Bragdon's oxidation method, respectively.
# Indices for the histopathological change is as follows: […]
# [11] = test system: fatty liver induced by ethionine; experiment: effect on fatty liver, ethionine model; format: in vivo, mouse (dd-strain); conditions: 250 mg/kg oral, simultaneously with (0 hr) ethionine 200 mg/kg i.p.
# Description: There are known many factors inducing fatty liver. But, the fatty liver is grouped into a couple of patterns from the mechanism of lipid accumulation or metabolism of lipoprotein in the liver. Ethionine is a typical example which induces first pattern of fatty liver. It inhibits RNA and protein synthesis and destroys polysome of the liver cell. Fatty liver is induced by inhibition of the protein synthesis and disturbance of lipoprotein secretion.
# Usually, fatty liver is closely related to the accumulation of triglyceride in the liver. In the present example, the degree of fatty liver and protective or therapeutic effect on the fatty liver was evaluated by measurement of triglyceride content in the liver.
# The compounds of this invention and methionine were independently dissolved or suspended into olive oil and administered orally to the male mouse (4 week-old dd-strain) at the dose of 250 mg/kg. One hour before it, simultaneously with it or one hour after it, ethionine dissolved in equimolar NaOH solution was administered intraperitoneally at the dose of 200 mg/kg. Twenty four hours after the administration of ethionine, the animals were sacrificed and triglyceride content in the liver was determined by chromotropic acid method.
compound,measurement,setting,value
"COc1ccc(-c2cc(=S)ss2)cc1 [Anethol trithion, reference compound]",excretion of biliary salt,"[1]; 200 mg/kg oral, 5 hours after treatment, before treatment = 100",33 ± 4.0
same,excretion of biliary salt,"[1]; before treatment, 1 hour, taken as 100 (normalisation)",100
same,p-GPT,[2],38 Karmen units
same,Triglyceride in the liver,[3],9.2 ± 1.5 mg/g
same,BSP,[4],19.3 ± 4.6
same,p-GPT,[5],> 1000 Karmen unit
same,BSP,[6],12.9 ± 5.5 mg/dL
same,p-GPT,[6],28 ± 4.1 Karmen unit
same,BSP,[7],17.6 ± 2.7 mg/dL
same,p-GPT,[7],192 ± 54 Karmen unit
COC(=O)C(C(=O)OC)=C1SC=CS1 [Compound 1],Liver Damage Index,[2],0.4
same,p-GPT,[2],138 Karmen units
"CCOC(=O)C(C(=O)OCC)=C1SC=CS1 [Compound 2, Diethyl 1,3-dithiol-2-ylidene malonate]",Liver Damage Index,[2],0.2
same,p-GPT,[2],36 Karmen units
same,"Blood Sugar, percent of 0 min value",[8]; 0 min,100%
same,Blood Sugar,[8]; 0 min,136 ± 20.4 mg/dL
same,Blood Sugar,[8]; 30 min,295 ± 22.3 mg/dL
same,Blood Sugar,[8]; 60 min,251 ± 19.6 mg/dL
same,Blood Sugar,[8]; 90 min,202 ± 12.3 mg/dL
same,Blood Sugar,[8]; 120 min,158 ± 15.5 mg/dL
same,"Blood Sugar, percent of 0 min value",[8]; 30 min,217%
same,"Blood Sugar, percent of 0 min value",[8]; 60 min,185%
same,"Blood Sugar, percent of 0 min value",[8]; 90 min,149%
same,"Blood Sugar, percent of 0 min value",[8]; 120 min,116%
"CCCOC(=O)C(C(=O)OCCC)=C1SC=CS1 [Compound 3, Di-n-propyl 1,3-dithiol-2-ylidene malonate]",Liver Damage Index,[2],0.1
same,p-GPT,[2],36 Karmen units
CCCCOC(=O)C(C(=O)OCCCC)=C1SC=CS1 [Compound 5],Liver Damage Index,[2],0.4
same,p-GPT,[2],52 Karmen units
CC(C)COC(=O)C(C(=O)OCC(C)C)=C1SC=CS1 [Compound 6],Liver Damage Index,[2],0.4
same,p-GPT,[2],75 Karmen units
"CCOC(=O)C(C(=O)OC(C)C)=C1SC=CS1 [Compound 7, Ethyl isopropyl 1,3-dithiol-2-ylidene malonate]",Liver Damage Index,[2],0.8
same,p-GPT,[2],102 Karmen units
same,Concentration of Ethyl alcohol in Plasma,[9]; 0 min,30 ± 14 ppm
same,Concentration of Ethyl alcohol in Plasma,[9]; 5 min,830 ± 180 ppm
same,Concentration of Ethyl alcohol in Plasma,[9]; 15 min,799 ± 154 ppm
same,Concentration of Ethyl alcohol in Plasma,[9]; 30 min,448 ± 208 ppm
same,Concentration of Ethyl alcohol in Plasma,[9]; 60 min,158 ± 113 ppm
same,Concentration of Ethyl alcohol in Plasma,[9]; 120 min,12 ± 2 ppm
"COC(=O)C(C(=O)OCC(C)C)=C1SC=CS1 [Compound 8, Methyl isobutyl 1,3-dithiol-2-ylidene malonate]",Liver Damage Index,[2],0.6
same,p-GPT,[2],88 Karmen units
"CSCC[C@H](N)C(=O)O [Methionine, reference compound]",Total lipid,"[10]; 250 mg/kg, 10 days",146.1 ± 13.0 mg/g-liver
same,Triglyceride,"[10]; 250 mg/kg, 10 days",47.3 ± 7.3 mg/g-liver
same,therapeutic effect against fatty liver,[10]; carbon tetrachloride,hardly exhibited a therapeutic effect
same,Triglyceride,[11],10.3 ± 0.83 mg/g-liver
